Columns and labels:
NF-κB [1] = assay: Whole animal bioluminescent imaging, LPS-induced NF-κB/luc transgenic mice; type: in vivo
Source text: Mice: The NF-κB/luc transgenic mice bearing the luciferase transgene driven by two copies of the NF-kappaB regulatory elements were mated with wild-type FVB mice to generate the hybrid NF-κB/luc transgenic offspring for the experiments. Whole animal bioluminescent imaging: 15 mice with age of 6˜8 weeks were randomly divided into three groups. The group 1 was the blank group; the group 2 was control group; and the group 3 was experimental group. The mice of the group 2 and the group 3 were administration with 100 ul of […] lipopolysaccharide (LSP) solution to induce the inflammation in the mice by intraperitoneal injection (IP injection). As the blank control, the mice of group 1 were administered with 100 μl of PBS by IP injection. After the LPS-injection for 5 minutes, the mice of the group 3 were further injected with 20 μl solution that contains 0.5 mg/Kg of the present polypeptide by IP injection. In contrast, the mice of the group 2 and the […] were injected with 20 μul of water. […] For in vivo imaging mice were anesthetized with isoflurane and injected intraperitoneally with 150 mg/kg luciferin. After 10 minutes, the mice were placed face up and imaged for 1 min with the camera set at the highest sensitivity by IVIS Imaging System-200 (Series Xenogen Hopkinton, Mass.). The photons emitted from the tissues were quantified by Living Images software (Xenogen, Hopkinton, Mass.) and were shown in FIG. 4A. In the FIG. 4A, the Y-axis shown the signal strength (photons/sec) that stands for total photons diffused from the mice.

NF-κB [2] = assay: Ex vivo bioluminescent imaging of organs, LPS-induced NF-κB/luc transgenic mice; type: in vivo; details: group 2 (LPS IP) vs group 1 (PBS blank); up-regulation
Procedure: The mice of the three groups manipulated in example 3 were abdominally injected with 150 mg/Kg luciferin. After luciferin injection for 5 minutes, the mice were sacrificed and the tissues including brain, heart, lung, liver, spleen, stomach, kidney, ovary and intestine were rapidly removed. The collected tissues were placed in the IVIS Imaging System-200 Series (Xenogen, Hopkinton, Mass.) and imaged with the same setting used for in vivo bioluminescent imaging.
In the table 2, the average of luciferin value in the mice of the group 2 was divided to average of luciferin value in the mice of the group 1 to obtain the fold change. In table 3, the average of luciferin value in the mice of the group 3 was divided to the average of luciferin value in the mice of the group 2 to obtain the fold change.

lipopolysaccharide [LPS, reference compound]
increase of NF-κB-driven luminescent intensity (NF-κB [1]; LPS group vs blank group): approximately 10.95 fold | average of luciferin value (NF-κB [1]; group 2: LPS IP + water, 4 hours, blank group 1 2.92×10^7): 31.97×10^7 photons/sec | Fold change of the luciferin value, Brain (NF-κB [2]): 18.87 folds | Fold change of the luciferin value, Heart (NF-κB [2]): 6.03 folds | Fold change of the luciferin value, Intestine (NF-κB [2]): 55.63 folds | Fold change of the luciferin value, Kidney (NF-κB [2]): 93.78 folds | Fold change of the luciferin value, Liver (NF-κB [2]): 4.06 folds | Fold change of the luciferin value, Lung (NF-κB [2]): 11.90 folds | Fold change of the luciferin value, Ovary (NF-κB [2]): 5.35 folds | Fold change of the luciferin value, Spleen (NF-κB [2]): 5.57 folds | Fold change of the luciferin value, Stomach (NF-κB [2]): 4.95 folds

From US11723946B2, “Methods for regulating transcription of multiple genes and expression of multiple targets” (CHINA MEDICAL UNIVERSITY, priority 2014, dated 2023)
